The values that follow come from US9233106B2, “Inhibition of beta-amyloid peptide aggregation” (CORNELL RESEARCH FOUNDATION, INC., priority 2006, dated 2016).

Data set [1] concerns the target T1, Aβ(1-40) peptide (Homo sapiens, UniProt P05067). Description: Thioflavin T fluorescence assay of Aβ(1-40) peptide aggregation. Conditions: for effect on Aβ(1-40) peptide aggregation: different concentrations of ligand.
Data set [2] concerns the target nicotinic acetylcholine receptor (Mus musculus, UniProt P02716+P04756+P04760+P09690). To be noted: cited from earlier work.
Data set [3] concerns cardiovascular functions. Conditions: squirrel monkeys; cited from earlier work.
The conditions of data set [4]: conscious rats; cited from earlier work.
The test system of data set [5] is cardiovascular functions. Conditions: anesthetized rats; cited from earlier work.
Data set [6] concerns cardiac myocytes. To be noted: cited from earlier work.
Data set [7] addresses T1, Aβ(1-40) peptide. The experiment in a line: Electrophoretic mobility shift (gel-shift) binding assay with [3H]-cocaine. Conditions: 7-μM [3H]-cocaine, 125-μM Aβ(1-40), pH 7.4; preliminary results. From the text: The gel was cast in a vertical electrophoresis system of dimensions 7×8×0.15 cm and run at 100 V for 2 hr at room temperature. Lane I contains 7-μM [^3H]-cocaine only and Lane II contains 7-μM [^3H]-cocaine and 125-μM Aβ(1-40) peptide. The gel was then phosphor imaged; the contrast of the image was enhanced using ImageJ 1.34, in the process of which the contrast of the band streaks compared to background was lost. The square boxes correspond to the free [^3H]-cocaine trapped in the well; the circle corresponds to the [^3H]-cocaine bound to Aβ(1-40). […] The position of the peptide corresponded to the [^3H]-cocaine bound to Aβ(1-40) (circle) in the phosphorimage in FIG. 3A.
On the other hand, the theoretical isolectric point of the Aβ(1-40) peptide is 5.37 (Wiltfang et al., “Highly Conserved and Disease-Specific Patterns of Carboxyterminally Truncated Aβ Peptides 1-37/38/39 in Addition to 1-40/42 in Alzheimer's Disease and in Patients with Chronic Neuroinflammation,” J. Neurochem. 81:481-496 (2002), which is hereby incorporated by reference in its entirety). […] The imaging plate is then scanned by using a Molecular Dynamics Storm 860 PhosphorImager, and band intensities are quantified by using the IMAGEQUANT software from Molecular Dynamics. […]

In data set [8] the target is T2, muscle type nicotinic acetylcholine receptor expressed in BC3H1 cells (Mus musculus, UniProt P02716+P04756+P04760+P09690).
T2 construct: nicotinic acetylcholine receptors expressed on the surface of BC3H1 cells; endogenous in cells; host or cells: BC3H1 cells
T2 sequence (P04756 21-457): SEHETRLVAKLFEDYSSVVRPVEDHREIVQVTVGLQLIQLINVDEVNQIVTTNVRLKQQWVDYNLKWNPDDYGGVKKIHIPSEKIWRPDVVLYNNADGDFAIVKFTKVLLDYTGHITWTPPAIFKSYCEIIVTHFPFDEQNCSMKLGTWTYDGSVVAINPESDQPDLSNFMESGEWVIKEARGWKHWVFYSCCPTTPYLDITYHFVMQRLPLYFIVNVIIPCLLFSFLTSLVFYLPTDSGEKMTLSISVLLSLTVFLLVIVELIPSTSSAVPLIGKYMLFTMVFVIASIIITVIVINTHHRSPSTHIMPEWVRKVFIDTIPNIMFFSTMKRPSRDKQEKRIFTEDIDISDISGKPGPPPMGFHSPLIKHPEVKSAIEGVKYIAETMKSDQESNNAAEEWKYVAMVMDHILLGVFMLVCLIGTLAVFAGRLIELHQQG
T2 sequence (P09690 24-501): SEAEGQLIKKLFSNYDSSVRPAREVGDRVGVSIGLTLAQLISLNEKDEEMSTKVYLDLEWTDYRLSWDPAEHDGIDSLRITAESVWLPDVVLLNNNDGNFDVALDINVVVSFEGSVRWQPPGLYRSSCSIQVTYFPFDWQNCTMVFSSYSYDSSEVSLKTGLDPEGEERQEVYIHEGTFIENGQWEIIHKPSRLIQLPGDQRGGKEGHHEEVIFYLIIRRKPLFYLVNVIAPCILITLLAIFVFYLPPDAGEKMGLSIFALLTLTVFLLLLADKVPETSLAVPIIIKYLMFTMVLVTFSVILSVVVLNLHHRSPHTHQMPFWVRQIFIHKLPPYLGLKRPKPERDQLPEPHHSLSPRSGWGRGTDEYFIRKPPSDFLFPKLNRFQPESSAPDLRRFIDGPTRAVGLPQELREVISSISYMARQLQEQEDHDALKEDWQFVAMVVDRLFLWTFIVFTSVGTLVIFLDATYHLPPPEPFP
T2 sequence (P04760 23-519): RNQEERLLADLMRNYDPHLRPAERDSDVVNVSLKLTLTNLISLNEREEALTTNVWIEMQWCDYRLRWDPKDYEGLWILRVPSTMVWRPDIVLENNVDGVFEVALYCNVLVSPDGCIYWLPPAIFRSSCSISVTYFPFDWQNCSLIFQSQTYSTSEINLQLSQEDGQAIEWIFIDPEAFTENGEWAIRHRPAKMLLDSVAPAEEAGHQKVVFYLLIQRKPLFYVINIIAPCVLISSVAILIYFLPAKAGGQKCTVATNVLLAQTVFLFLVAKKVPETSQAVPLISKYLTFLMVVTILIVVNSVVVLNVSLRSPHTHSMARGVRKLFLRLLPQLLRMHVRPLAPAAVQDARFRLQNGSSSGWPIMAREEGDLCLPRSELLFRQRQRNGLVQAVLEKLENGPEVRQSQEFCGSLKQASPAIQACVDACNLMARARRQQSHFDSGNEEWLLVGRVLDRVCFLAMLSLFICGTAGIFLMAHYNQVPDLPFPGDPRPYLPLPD
T2 sequence (P02716 25-520): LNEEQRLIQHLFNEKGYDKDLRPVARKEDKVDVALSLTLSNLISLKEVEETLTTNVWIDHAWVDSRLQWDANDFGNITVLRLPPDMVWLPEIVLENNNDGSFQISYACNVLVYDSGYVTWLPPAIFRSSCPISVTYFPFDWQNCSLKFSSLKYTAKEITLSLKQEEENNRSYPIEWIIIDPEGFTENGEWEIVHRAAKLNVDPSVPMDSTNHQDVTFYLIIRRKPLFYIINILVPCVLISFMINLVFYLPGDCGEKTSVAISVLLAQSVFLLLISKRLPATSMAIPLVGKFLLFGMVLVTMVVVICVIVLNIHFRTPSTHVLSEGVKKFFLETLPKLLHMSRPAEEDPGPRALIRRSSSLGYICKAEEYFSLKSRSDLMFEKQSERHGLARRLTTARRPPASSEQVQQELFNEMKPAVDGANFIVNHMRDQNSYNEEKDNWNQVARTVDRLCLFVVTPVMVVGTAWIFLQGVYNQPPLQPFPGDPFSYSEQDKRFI
The experiment in a line: Whole-cell current recording, cell-flow technique, carbamoylcholine-induced currents. It is filed as cell-based. To be noted: 100-μM carbamoylcholine, listed as B55.
Method: Experiments were conducted at ˜22° C., −60 mV, and pH 7.4. The currents were induced by application of 100-μM carbamoylcholine only (lighter rising and falling line) or by a 2-second preincubation of the cells with 1-μM aptamer B55 followed by coapplication of the aptamer (at the same concentration used in preincubation) with 100-μM carbamoylcholine for 6 s (darker rising and falling line). The upper traces parallel to the abscissa represent the current amplitudes corrected for receptor desensitization that occurs during the rising phase. […] AO is the maximum current amplitude in the presence of 100-μM carbamoylcholine, and AI the maximum current amplitude in the presence of the same concentration of carbamoylcholine and different concentrations of aptamer B55. The whole-cell current was corrected for receptor desensitization. Each data point is the average of 2-4 measurements with at least two cells.
Carbamoylcholine-induced currents were recorded using the whole-cell configuration at room temperature (22-23° C.), pH 7.4, and a transmembrane voltage of −60 mV. The currents were amplified using an Axopatch 200B amplifier (Axon Instruments, Union City, Calif.) and filtered at 1 kHz (using a four-pole low-pass Bessel filter incorporated in the Axopatch 200B amplifier). […]

Data set [9] concerns the target T1, Aβ(1-40) peptide. Conditions: Ylera et al. 2002; read-out: Kd(amyloid) for the Aβ(1-40) peptide; cited from earlier work.

Entries after “also recorded” stand apart in the source; their conditions may differ.

T1 sequence (P05067 672-711 limits assumed): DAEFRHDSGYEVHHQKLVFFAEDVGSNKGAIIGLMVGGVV
Chain of nicotinic acetylcholine receptor (P04756 21-457): as the sequence (P04756 21-457) above
Chain of nicotinic acetylcholine receptor (P09690 24-501): as the sequence (P09690 24-501) above
Chain of nicotinic acetylcholine receptor (P04760 23-519): as the sequence (P04760 23-519) above
Chain of nicotinic acetylcholine receptor (P02716 25-520): as the sequence (P02716 25-520) above

Consider `CN1C2CCC1C(C(=O)O)C(O)C2` (stereo not shown) [ecgonine], for which the “effect on Aβ(1-40) peptide aggregation” value in data set [1] (50-μM Aβ(1-40), 37° C., 2 days) is “inhibit aggregation of Aβ(1-40) in a dose-dependent manner; also recorded: dose-dependent inhibition”.
Consider `C[C@]12N[C@H](Cc3ccccc31)c1ccccc12` [MK-801, dizocilpine, reference compound], for which, in data set [1] (50-μM Aβ(1-40), 37° C., 2 days), the “effect on Aβ(1-40) peptide aggregation” value is given as “inhibit aggregation of Aβ(1-40) in a dose-dependent manner; also recorded: dose-dependent inhibition”.
Take `COC(=O)C1=C(c2ccccc2)C(=O)C2CC(S(=O)(=O)c3ccccc3)C1N2C` (stereo not shown) [RCS-III-202A]: in data set [1] (50-μM Aβ(1-40), 37° C., 2 days), the “effect on Aβ(1-40) peptide aggregation” value is reported as “inhibit aggregation”.
On to `CN1C2CCC1C(C(=O)O)C(c1ccc(Cl)cc1)C2` (stereo not shown) [RTI-4229-70], for which the “effect on Aβ(1-40) peptide aggregation” value was “dose-dependent inhibition” in data set [1] (50-μM Aβ(1-40), 37° C., 2 days) and “inhibit aggregation of Aβ(1-40) in a dose-dependent manner” in [1] (50-μM Aβ(1-40), 37° C., 2 days, listed as RTI 4220-70).
Turning to `COC(=O)C1C(OC(C)=O)CC2CCC1N2C` (stereo not shown) [reference compound], the “alleviation of cocaine inhibition of the nicotinic acetylcholine receptor” value in data set [2] is reported as “does not alleviate cocaine inhibition”. Also, the “effect on Aβ(1-40) peptide aggregation” value in [1] (50-μM Aβ(1-40), 37° C., 2 days) was “does not inhibit aggregation; also recorded: dose-dependent acceleration”.
Consider `c1ccc(C2(N3CCCCC3)CCCCC2)cc1` [PCP, phencyclidine, reference compound], for which the “effect on Aβ(1-40) peptide aggregation at 1 mM” value in [1] (1-mM PCP, 50-μM Aβ(1-40), 37° C., 2 days) is on record as “abrogates Aβ aggregation; also recorded: abolished amyloid aggregation”.
As for `CN1C2CC(S(=O)(=O)c3ccccc3)C1C(C(=O)[O-])=CC2=O.[Li+]` (stereo not shown) [RCS-III-143], the “effect on Aβ(1-40) peptide aggregation” value in [1] (50-μM Aβ(1-40), 37° C., 2 days) is “inhibit aggregation”.
On the same count and under the same terms, then `CN1C2CC(S(=O)(=O)c3ccccc3)C1C(C(=O)[O-])=C(c1ccccc1)C2=O.[Li+]` (stereo not shown) [RCS-III-218], with “inhibit aggregation”.
Turning to `COC(=O)C1C(O)CC2CCC1N2C` (stereo not shown), the “dose with no effect on cardiovascular functions in vivo, i.v. bolus” value in [3] was “up to 10 mg/kg”. In addition, the “brain tissue concentration corresponding to the lowest toxic daily dose” value in data set [4] was 478.43±57.89. The “dose with no effect on cardiovascular functions in vivo, i.v. infusion” value in data set [5] was “up to 1.5 mg/kg/min”. The “concentration with no effect on cardiovascular functions in vitro” value in data set [6] is reported as “up to 100 μM”. The “effect on Aβ(1-40) peptide aggregation” value in [1] (50-μM Aβ(1-40), 37° C., 2 days) is “inhibit aggregation of Aβ(1-40) in a dose-dependent manner; also recorded: dose-dependent inhibition”. Besides, the “concentration required to abolish the aggregation of Aβ(1-40) in the brain (estimated therapeutic concentration)” value in [1] (order-of-magnitude approximation calculated from FIG. 4A and CSF Aβ(1-40) concentration) is recorded as around 40 ng/g.
Consider `COC(=O)C1C(OC(=O)c2ccccc2)CC2CCC1N2C` (stereo not shown) [cocaine], for which the “binding of cocaine to the Aβ(1-40) peptide” value in [7] is on record as “binds; also recorded: direct binding”. Besides, in data set [1] (50-μM Aβ(1-40), 37° C., 2 days), the “effect on Aβ(1-40) peptide aggregation” value was “dose-dependent inhibition”.
`COC(=O)C1=CC(=O)C2CC(S(=O)(=O)c3ccccc3)C1N2C` (stereo not shown) [RCS-III-140A]: in [1] (50-μM Aβ(1-40), 37° C., 2 days), the “effect on Aβ(1-40) peptide aggregation” value is “inhibit aggregation”.
In the case of “UUCACCG ((i.e., UUCACCG); as printed in the source, key not given here)”, the “effect on Aβ(1-40) peptide aggregation at 500 μM” value in [1] (500-μM oligonucleotide, 50-μM Aβ(1-40), 37° C., 2 days) is listed as “abolished amyloid aggregation”.

B1: 5′-UUUACCGUAAGGCCUGUCUUCGUUUGACAGCGGCUUGUUGACCCUCACACUUUGUACCUGCUGCCAA-3′ (nucleic acid)
chain: UUUACCGUAAGGCCUGUCUUCGUUUGACAGCGGCUUGUUGACCCUCACACUUUGUACCUGCUGCCAA
modifications: chemistry not given here
For B1, the “inhibition of carbamoylcholine-induced currents from the nicotinic acetylcholine receptor” value in [8] is “inhibited carbamoylcholine-induced currents from the nicotinic acetylcholine receptor in a dose-dependent manner; also recorded: inhibition”. Also, in [9], the dissociation constant (Kd) (as a rule, the equilibrium constant for the complex coming apart) was 29 nM.
